Experimental data from patent US8551937B2, “Peptide having an extending action for half-life of object peptide in plasma” (priority 2008, dated 2013).
Where a SMILES comes first, the peptide text is derived from it.

experiment: Motilin immunoreactivity concentration in plasma, half-life after intravenous administration (Example 8); details: male, SD, rat, in vivo, iv, 10 nmol/kg
Procedure: The experiment was carried out using rats into which polyethylene tube (PE-50 manufactured by Clay Adams) was inserted into thigh artery under an anesthetized condition with Nembutal. As to a test system, male SD strain rats (Nippon Charles River) of 7 weeks age were used where one group comprised 3 rats. Human motilin or a derivative thereof in a dose of 10 nmol/kg was administered into tail vein of the rat and the blood before the administration and until 60 minutes after the administration was periodically collected by a polyethylene tube inserted into the thigh artery. To the collected blood were added EDTA (manufactured by Dojin Laboratories) and aprotinin (manufactured by Bayer) as a stabilizer and an anti-coagulant, respectively and the plasma was separated therefrom by centrifugal separation. Motilin immunoreactivity concentration in plasma was measured by a competitive radioimmunoassay (RIA) (FIG. 8). At that time, a rabbit polyclonal antibody (#870623) which specifically recognizes the amino acid numbers 1 to 12 of native motilin shown by SEQ ID No: 102 was used as an antibody and, as a labeled compound, ^125I-[Tyr^7] human motilin was used.

| Structure (SMILES) | half-life |
| --- | --- |
| CC[C@H](C)[C@H](NC(=O)[C@@H]1CCCN1C(=O)[C@@H](NC(=O)[C@@H](N)Cc1ccccc1)C(C)C)C(=O)N[C@@H](Cc1ccccc1)C(=O)N[C@H](C(=O)N[C@@H](Cc1ccc(O)cc1)C(=O)NCC(=O)N[C@@H](CCC(=O)O)C(=O)N[C@@H](CC(C)C)C(=O)N[C@@H](CCC(N)=O)C(=O)N[C@@H](CCCNC(=N)N)C(=O)N[C@H](C(=O)N[C@@H](CCC(N)=O)C(=O)N[C@@H](CCC(N)=O)C(=O)N[C@@H](CCCNC(=N)N)C(=O)N[C@@H](CCCCN)C(=O)N[C@@H](CCC(=O)O)C(=O)N[C@@H](CO)C(=O)N[C@@H](CCCCN)C(=O)N[C@@H](CCCCN)C(=O)N[C@@H](C)C(=O)N[C@@H](CCCCN)C(=O)N[C@@H](CC(C)C)C(=O)N[C@@H](C)C(=O)N[C@@H](C)C(=O)N[C@@H](CC(C)C)C(=O)N[C@@H](CCCCN)C(=O)N[C@@H](C)C(=O)O)C(C)C)[C@@H](C)O [Chimeric motilin (V) (MG-dPPH1)] (H-FVPIFTYGELQRVQQRKESKKAKLAALKA-OH; N-terminus and C-terminus assumed) | 8.94 min |
| CC[C@H](C)[C@H](NC(=O)[C@@H]1CCCN1C(=O)[C@@H](NC(=O)[C@@H](N)Cc1ccccc1)C(C)C)C(=O)N[C@@H](Cc1ccccc1)C(=O)N[C@H](C(=O)N[C@@H](Cc1ccc(O)cc1)C(=O)NCC(=O)N[C@@H](CCC(=O)O)C(=O)N[C@@H](CC(C)C)C(=O)N[C@@H](CCC(N)=O)C(=O)N[C@@H](CCCNC(=N)N)C(=O)N[C@H](C(=O)N[C@@H](CCC(N)=O)C(=O)N[C@@H](CCC(N)=O)C(=O)N[C@@H](CCCNC(=N)N)C(=O)N[C@@H](CCCCN)C(=O)N[C@@H](CCC(=O)O)C(=O)N[C@@H](C)C(=O)N[C@@H](CCCCN)C(=O)N[C@@H](CCCCN)C(=O)N1CCC[C@H]1C(=O)N1CCC[C@H]1C(=O)N[C@@H](C)C(=O)N[C@@H](CCCCN)C(=O)N[C@@H](CC(C)C)C(=O)N[C@@H](CCC(N)=O)C(=O)N1CCC[C@H]1C(=O)N[C@@H](CCCNC(=N)N)C(=O)O)C(C)C)[C@@H](C)O [Chimeric motilin (S)(MG-18S/A)] (H-FVPIFTYGELQRVQQRKEAKKPPAKLQPR-OH; N-terminus and C-terminus assumed) | 9.29 min |
| CC[C@H](C)[C@H](NC(=O)[C@@H]1CCCN1C(=O)[C@@H](NC(=O)[C@@H](N)Cc1ccccc1)C(C)C)C(=O)N[C@@H](Cc1ccccc1)C(=O)N[C@H](C(=O)N[C@@H](Cc1ccc(O)cc1)C(=O)NCC(=O)N[C@@H](CCC(=O)O)C(=O)N[C@@H](CC(C)C)C(=O)N[C@@H](CCC(N)=O)C(=O)N[C@@H](CCCNC(=N)N)C(=O)N[C@H](C(=O)N[C@@H](CCC(N)=O)C(=O)N[C@@H](CCC(N)=O)C(=O)N[C@@H](CCCCN)C(=O)N[C@@H](CCCCN)C(=O)N[C@@H](C)C(=O)N[C@@H](Cc1ccc(O)cc1)C(=O)N[C@@H](CO)C(=O)N1CCC[C@H]1C(=O)N[C@@H](CC(=O)O)C(=O)N[C@@H](CCCCN)C(=O)N[C@@H](CCC(=O)O)C(=O)N[C@@H](CCCNC(=N)N)C(=O)N[C@@H](CCCCN)C(=O)N1CCC[C@H]1C(=O)N1CCC[C@H]1C(=O)N[C@@H](C)C(=O)N[C@@H](CC(C)C)C(=O)N[C@@H](CCC(N)=O)C(=O)N1CCC[C@H]1C(=O)N[C@@H](CCCNC(=N)N)C(=O)O)C(C)C)[C@@H](C)O [Chimeric motilin (XII)(MGP1)] (H-FVPIFTYGELQRVQQKKAYSPDKERKPPALQPR-OH; N-terminus and C-terminus assumed) | 13 min |
| CC[C@H](C)[C@H](NC(=O)[C@@H]1CCCN1C(=O)[C@@H](NC(=O)[C@@H](N)Cc1ccccc1)C(C)C)C(=O)N[C@@H](Cc1ccccc1)C(=O)N[C@H](C(=O)N[C@@H](Cc1ccc(O)cc1)C(=O)NCC(=O)N[C@@H](CCC(=O)O)C(=O)N[C@@H](CC(C)C)C(=O)N[C@@H](CCC(N)=O)C(=O)N[C@@H](CCCNC(=N)N)C(=O)N[C@H](C(=O)N[C@@H](CCC(N)=O)C(=O)N[C@@H](CCC(N)=O)C(=O)N[C@@H](CCCNC(=N)N)C(=O)N[C@@H](CCCCN)C(=O)N[C@@H](CCC(=O)O)C(=O)N[C@@H](CCCCN)C(=O)N[C@@H](CCCCN)C(=O)N1CCC[C@H]1C(=O)N1CCC[C@H]1C(=O)N[C@@H](C)C(=O)N[C@@H](CCCCN)C(=O)N[C@@H](CC(C)C)C(=O)N[C@@H](CCC(N)=O)C(=O)N1CCC[C@H]1C(=O)N[C@@H](CCCNC(=N)N)C(=O)O)C(C)C)[C@@H](C)O [Chimeric motilin (N)(MG-dS)] (H-FVPIFTYGELQRVQQRKEKKPPAKLQPR-OH; N-terminus and C-terminus assumed) | 9.12 min |
| CC[C@H](C)[C@H](NC(=O)[C@@H]1CCCN1C(=O)[C@@H](NC(=O)[C@@H](N)Cc1ccccc1)C(C)C)C(=O)N[C@@H](Cc1ccccc1)C(=O)N[C@H](C(=O)N[C@@H](Cc1ccc(O)cc1)C(=O)NCC(=O)N[C@@H](CCC(=O)O)C(=O)N[C@@H](CC(C)C)C(=O)N[C@@H](CCC(N)=O)C(=O)N[C@@H](CCCNC(=N)N)C(=O)N[C@H](C(=O)N[C@@H](CCC(N)=O)C(=O)N[C@@H](CCC(N)=O)C(=O)N[C@@H](CCCNC(=N)N)C(=O)N[C@@H](CCCCN)C(=O)N[C@@H](CCC(=O)O)C(=O)N[C@@H](Cc1ccccc1)C(=O)N[C@@H](CCCCN)C(=O)N[C@@H](CCCCN)C(=O)N1CCC[C@H]1C(=O)N1CCC[C@H]1C(=O)N[C@@H](C)C(=O)N[C@@H](CCCCN)C(=O)N[C@@H](CC(C)C)C(=O)N[C@@H](CCC(N)=O)C(=O)N1CCC[C@H]1C(=O)N[C@@H](CCCNC(=N)N)C(=O)O)C(C)C)[C@@H](C)O [Chimeric motilin (O)(MG-18S/F)] (H-FVPIFTYGELQRVQQRKEFKKPPAKLQPR-OH; N-terminus and C-terminus assumed) | 7.73 min |
| CC[C@H](C)[C@H](NC(=O)[C@@H]1CCCN1C(=O)[C@@H](NC(=O)[C@@H](N)Cc1ccccc1)C(C)C)C(=O)N[C@@H](Cc1ccccc1)C(=O)N[C@H](C(=O)N[C@@H](Cc1ccc(O)cc1)C(=O)NCC(=O)N[C@@H](CCC(=O)O)C(=O)N[C@@H](CC(C)C)C(=O)N[C@@H](CCC(N)=O)C(=O)N[C@@H](CCCNC(=N)N)C(=O)N[C@H](C(=O)N[C@@H](CCC(N)=O)C(=O)N[C@@H](CCC(N)=O)C(=O)N[C@@H](CCCNC(=N)N)C(=O)N[C@@H](CCCCN)C(=O)N[C@@H](CC(=O)O)C(=O)N[C@@H](CO)C(=O)N[C@@H](CCCCN)C(=O)N[C@@H](CCCCN)C(=O)N1CCC[C@H]1C(=O)N1CCC[C@H]1C(=O)N[C@@H](C)C(=O)N[C@@H](CCCCN)C(=O)N[C@@H](CC(C)C)C(=O)N[C@@H](CCC(N)=O)C(=O)N1CCC[C@H]1C(=O)N[C@@H](CCCNC(=N)N)C(=O)O)C(C)C)[C@@H](C)O [Chimeric motilin (V)(MG-ES/DS)] (H-FVPIFTYGELQRVQQRKDSKKPPAKLQPR-OH; N-terminus and C-terminus assumed) | 10.1 min |
| CC[C@H](C)[C@H](NC(=O)[C@H](CCSC)NC(=O)[C@H](CCCCN)NC(=O)[C@H](CCCCN)NC(=O)[C@H](CO)NC(=O)[C@H](CCC(=O)O)NC(=O)[C@H](CCCCN)NC(=O)[C@H](CCCNC(=N)N)NC(=O)[C@H](CCC(N)=O)NC(=O)[C@H](CCC(N)=O)NC(=O)[C@@H](NC(=O)[C@H](CCCNC(=N)N)NC(=O)[C@H](CCC(N)=O)NC(=O)[C@H](CC(C)C)NC(=O)[C@H](CCC(=O)O)NC(=O)CNC(=O)[C@H](Cc1ccc(O)cc1)NC(=O)[C@@H](NC(=O)[C@H](Cc1ccccc1)NC(=O)[C@@H](NC(=O)[C@@H]1CCCN1C(=O)[C@@H](NC(=O)[C@@H](N)Cc1ccccc1)C(C)C)[C@@H](C)CC)[C@@H](C)O)C(C)C)C(=O)N[C@H](C(=O)N[C@H](C(=O)N[C@@H](CCCNC(=N)N)C(=O)O)[C@@H](C)CC)[C@@H](C)O [Chimeric motilin (IX)(MG-dPPS)] (H-FVPIFTYGELQRVQQRKESKKMITIR-OH; N-terminus and C-terminus assumed) | 4.39 min |
| CC[C@H](C)[C@H](NC(=O)[C@H](CCSC)NC(=O)[C@@H]1CCCN1C(=O)[C@@H]1CCCN1C(=O)[C@H](CCCCN)NC(=O)[C@H](CCCCN)NC(=O)[C@H](CO)NC(=O)[C@H](CCC(=O)O)NC(=O)[C@H](CCCCN)NC(=O)[C@H](CCCNC(=N)N)NC(=O)[C@H](CCC(N)=O)NC(=O)[C@H](CCC(N)=O)NC(=O)[C@@H](NC(=O)[C@H](CCCNC(=N)N)NC(=O)[C@H](CCC(N)=O)NC(=O)[C@H](CC(C)C)NC(=O)[C@H](CCC(=O)O)NC(=O)CNC(=O)[C@H](Cc1ccc(O)cc1)NC(=O)[C@@H](NC(=O)[C@H](Cc1ccccc1)NC(=O)[C@@H](NC(=O)[C@@H]1CCCN1C(=O)[C@@H](NC(=O)[C@@H](N)Cc1ccccc1)C(C)C)[C@@H](C)CC)[C@@H](C)O)C(C)C)C(=O)N[C@H](C(=O)N[C@H](C(=O)N[C@@H](CCCNC(=N)N)C(=O)O)[C@@H](C)CC)[C@@H](C)O [Chimeric motilin (X)(MG-S)] (H-FVPIFTYGELQRVQQRKESKKPPMITIR-OH; N-terminus and C-terminus assumed) | 5.25 min |
| CC[C@H](C)[C@H](NC(=O)[C@@H]1CCCN1C(=O)[C@@H](NC(=O)[C@@H](N)Cc1ccccc1)C(C)C)C(=O)N[C@@H](Cc1ccccc1)C(=O)N[C@H](C(=O)N[C@@H](Cc1ccc(O)cc1)C(=O)NCC(=O)N[C@@H](CCC(=O)O)C(=O)N[C@@H](CC(C)C)C(=O)N[C@@H](CCC(N)=O)C(=O)N[C@@H](CCCNC(=N)N)C(=O)N[C@H](C(=O)N[C@@H](CCC(N)=O)C(=O)N[C@@H](CCC(N)=O)C(=O)N[C@@H](CCCCN)C(=O)N[C@@H](CCCCN)C(=O)N[C@@H](CO)C(=O)N[C@@H](CCC(=O)O)C(=O)N[C@@H](CCCCN)C(=O)N[C@@H](CCCNC(=N)N)C(=O)N1CCC[C@H]1C(=O)N1CCC[C@H]1C(=O)N[C@@H](C)C(=O)N[C@@H](CCCCN)C(=O)N[C@@H](CC(C)C)C(=O)N[C@@H](CCC(N)=O)C(=O)N1CCC[C@H]1C(=O)N[C@@H](CCCNC(=N)N)C(=O)O)C(C)C)[C@@H](C)O [Chimeric motilin (Y)(MG-BR)] (H-FVPIFTYGELQRVQQKKSEKRPPAKLQPR-OH; N-terminus and C-terminus assumed) | 11.6 min |
